For the test, the target named is T1, recombinant human Syk (GST-hSyk fusion protein) (Homo sapiens, UniProt P43405).
T1 construct: purchased Carna Biosciences 08-176
As to the kind of experiment: Homogeneous Time-Resolved Fluorescence (HTRF) assay for the recombinant human Syk enzyme. The note with it: 10-dose titration, 25 μM ATP. Format: biochemical. An outline of the steps:
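GST-hSyk (5 pM) preincubated 10 min with compound (0.1% DMSO) in 15 mM Tris-HCl pH 7.5, 2 mM DTT; reaction started with 250 nM biotinylated peptide, 5 mM Mg, 25 μM ATP, 45 min, room temperature. EDTA quench, Eu-anti-phosphotyrosine/SA-APC HTRF read after 30 min; IC50 from 10-dose titration (10 μM–0.508 nM), four-parameter fit.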
A general note: TR-FRET usually uses a lanthanide donor and a delayed reading to cut background.

Setting [1] is: IC50 class, read-out: rhSYK Activity.

Like-named read-outs stand apart in the source and are kept apart here. Bounds are passed on as bounds.

On to `Cc1cc(Nc2nccc(C(F)(F)F)n2)cc(-n2cc(C3(O)CCC(C(=O)O)C(C)(C)C3)cn2)c1` (centres unmarked) [Example 19.15, 4-hydroxy-2,2-dimethyl-4-[1-(3-methyl-5-{[4-(trifluoromethyl)pyrimidin-2-yl]amino}phenyl)-1H-pyrazol-4-yl]cyclohexanecarboxylic acid], for which, under setting [1], the IC50 was 100 to 1000 nM. Still for that read-out and setting: the same measure for `Cc1cc(Nc2nccc(C(F)(F)F)n2)cc(-c2cnn(CC(C)(O)CC#N)c2)c1` (centres unmarked) [Example 20.2, 3-hydroxy-3-methyl-4-[4-(3-methyl-5-{[4-(trifluoromethyl)pyrimidin-2-yl]amino}phenyl)-1H-pyrazol-1-yl]butanenitrile]: not above 100 nM; for `Cc1cc(Nc2nccc(C(F)(F)F)n2)cc(-c2cnn(CC(C)(O)CC#N)c2)c1` (centres unmarked) [Example 20.3, 3-hydroxy-3-methyl-4-[4-(3-methyl-5-{[4-(trifluoromethyl)pyrimidin-2-yl]amino}phenyl)-1H-pyrazol-1-yl]butanenitrile]: not above 100 nM. Same read-out and setting: then `Cc1cc(Nc2cc(C(F)(F)F)ccn2)nc(-c2cnn(CC(C)(O)CC#N)c2)c1` (centres unmarked) [Example 20.4, 3-hydroxy-3-methyl-4-[4-(4-methyl-6-{[4-(trifluoromethyl)pyridin-2-yl]amino}pyridin-2-yl)-1H-pyrazol-1-yl]butanenitrile], with not above 100 nM; and `Cc1cc(Nc2ncc(F)c(C(F)F)n2)cc(-c2cnn(CC(C)(O)CC#N)c2)c1` (centres unmarked) [Example 20.5, 4-[4-(3-{[4-(difluoromethyl)-5-fluoropyrimidin-2-yl]amino}-5-methylphenyl)-1H-pyrazol-1-yl]-3-hydroxy-3-methylbutanenitrile], with not above 100 nM; and `Cc1cc(Nc2ncc(F)c(C(F)F)n2)cc(-c2cnn(CC(C)(O)CC#N)c2)c1` (centres unmarked) [Example 20.6, 4-[4-(3-{[4-(difluoromethyl)-5-fluoropyrimidin-2-yl]amino}-5-methylphenyl)-1H-pyrazol-1-yl]-3-hydroxy-3-methylbutanenitrile], with not above 100 nM. On the same count and under the same terms, the same measure for `Cc1cc(Nc2nccc(C(F)F)n2)cc(-c2cnn(CC(C)(O)CC#N)c2)c1` (centres unmarked) [Example 20.7, 4-[4-(3-{[4-(difluoromethyl)pyrimidin-2-yl]amino}-5-methylphenyl)-1H-pyrazol-1-yl]-3-hydroxy-3-methylbutanenitrile]: not above 100 nM. Consider `Cc1cc(Nc2nccc(C(F)F)n2)cc(-c2cnn(CC(C)(O)CC#N)c2)c1` (centres unmarked) [Example 20.8, 4-[4-(3-{[4-(difluoromethyl)pyrimidin-2-yl]amino}-5-methylphenyl)-1H-pyrazol-1-yl]-3-hydroxy-3-methylbutanenitrile], for which the IC50 under setting [1] was not above 100 nM. Same read-out and setting: the same measure for `Cc1cc(Nc2nccc(C(C)(F)F)n2)cc(-c2cnn(CC(C)(O)CC#N)c2)c1` (centres unmarked) [Example 20.9, 4-[4-(3-{[4-(1,1-difluoroethyl)pyrimidin-2-yl]amino}-5-methylphenyl)-1H-pyrazol-1-yl]-3-hydroxy-3-methylbutanenitrile]: not above 100 nM. Take `Cc1cc(Nc2nccc(C(C)(F)F)n2)cc(-c2cnn(CC(C)(O)CC#N)c2)c1` (centres unmarked) [Example 20.10, 4-[4-(3-{[4-(1,1-difluoroethyl)pyrimidin-2-yl]amino}-5-methylphenyl)-1H-pyrazol-1-yl]-3-hydroxy-3-methylbutanenitrile]: the IC50 under setting [1] is not above 100 nM. The same measure, in the same setting: the same measure for `CC(=O)C(C)n1cc(-c2cc(C)cc(Nc3nccc(C(F)F)n3)c2)cn1` (centres unmarked) [Example 21.3, 3-[4-(3-{[4-(difluoromethyl)pyrimidin-2-yl]amino}-5-methylphenyl)-1H-pyrazol-1-yl]butan-2-one]: not above 100 nM; for `Cc1cc(Nc2cc(C(F)(F)F)ccn2)nc(-c2cnn(CC(C)(O)CO)c2)c1` (centres unmarked) [Example 21.4, 2-methyl-3-[4-(4-methyl-6-{[4-(trifluoromethyl)pyridin-2-yl]amino}pyridin-2-yl)-1H-pyrazol-1-yl]propane-1,2-diol]: not above 100 nM. Same read-out and setting: then `Cc1cc(Nc2cc(C(F)(F)F)ccn2)nc(-c2cnn(CC(C)(O)CO)c2)c1` (centres unmarked) [Example 21.5, 2-methyl-3-[4-(4-methyl-6-{[4-(trifluoromethyl)pyridin-2-yl]amino}pyridin-2-yl)-1H-pyrazol-1-yl]propane-1,2-diol], with not above 100 nM; and `Cc1cc(Nc2nccc(C(F)F)n2)cc(-c2cnn(CC(C)(O)C(C)(C)O)c2)c1` (centres unmarked) [Example 21.6, 1-[4-(3-{[4-(difluoromethyl)pyrimidin-2-yl]amino}-5-methylphenyl)-1H-pyrazol-1-yl]-2,3-dimethylbutane-2,3-diol], with not above 100 nM. Same read-out and setting: the same measure for `Cc1cc(Nc2nccc(C(F)F)n2)cc(-c2cnn(CC(C)(O)C(C)(C)O)c2)c1` (centres unmarked) [Example 21.7, 1-[4-(3-{[4-(difluoromethyl)pyrimidin-2-yl]amino}-5-methylphenyl)-1H-pyrazol-1-yl]-2,3-dimethylbutane-2,3-diol]: not above 100 nM. For the molecule `Cc1cc(Nc2nccc(C(F)F)n2)cc(-c2cnn(C(C)C(C)(O)CO)c2)c1` (centres unmarked) [Example 22.3, 3-[4-(3-{[4-(difluoromethyl)pyrimidin-2-yl]amino}-5-methylphenyl)-1H-pyrazol-1-yl]-2-methylbutane-1,2-diol], the IC50 under setting [1] is not above 100 nM. `Cc1cc(Nc2nccc(C(C)(F)F)n2)cc(-c2cnn(CC(C)(O)C(C)(C)O)c2)c1` (centres unmarked) [Example 22.4, 1-[4-(3-{[4-(1,1-difluoroethyl)pyrimidin-2-yl]amino}-5-methylphenyl)-1H-pyrazol-1-yl]-2,3-dimethylbutane-2,3-diol]: the IC50 under setting [1] was not above 100 nM. On the same count and under the same terms, then `Cc1cc(Nc2nccc(C(C)(F)F)n2)cc(-c2cnn(CC(C)(O)C(C)(C)O)c2)c1` (centres unmarked) [Example 22.5, 1-[4-(3-{[4-(1,1-difluoroethyl)pyrimidin-2-yl]amino}-5-methylphenyl)-1H-pyrazol-1-yl]-2,3-dimethylbutane-2,3-diol], with not above 100 nM.

`Cc1cc(Nc2nccc(C(F)F)n2)cc(-c2cnn(C3CCCC(C)(O)C3O)c2)c1` (centres unmarked) [Example 22.6, 3-[4-(3-{[4-(difluoromethyl)pyrimidin-2-yl]amino}-5-methylphenyl)-1H-pyrazol-1-yl]-1-methylcyclohexane-1,2-diol]: the IC50 is 1.7 nM (read-out: rhSYK IC50) and not above 100 nM under setting [1]. The like results for `Cc1cc(Nc2nccc(C(F)F)n2)cc(-c2cnn(C3CCC(C)(C)C(O)C3O)c2)c1` (centres unmarked) [Example 22.7, 6-[4-(3-{[4-(difluoromethyl)pyrimidin-2-yl]amino}-5-methylphenyl)-1H-pyrazol-1-yl]-3,3-dimethylcyclohexane-1,2-diol] were, in that order, 2.6 nM and not above 100 nM. The like results for `Cc1cc(Nc2nccc(C(F)F)n2)cc(-c2cnn(C3CCC(C)(C)C(O)C3(C)O)c2)c1` (centres unmarked) [Example 22.8, 6-[4-(3-{[4-(difluoromethyl)pyrimidin-2-yl]amino}-5-methylphenyl)-1H-pyrazol-1-yl]-1,3,3-trimethylcyclohexane-1,2-diol] were, in that order, 5.9 nM and not above 100 nM.

With `Cc1cc(Nc2nccc(C(F)F)n2)cc(-c2cnn(C3CC(C)(C)CC(C)(O)C3O)c2)c1` (centres unmarked) [Example 22.9, 3-[4-(3-{[4-(difluoromethyl)pyrimidin-2-yl]amino}-5-methylphenyl)-1H-pyrazol-1-yl]-1,5,5-trimethylcyclohexane-1,2-diol], the IC50 by setting is: (read-out: rhSYK IC50) 1.1 nM; under setting [1], not above 100 nM.

With `Cc1cc(Nc2nccc(C(F)F)n2)cc(-c2cnn(C3CC(C)(C)CC(C)(O)C3O)c2)c1` (centres unmarked) [Example 22.10], the IC50 is, setting by setting: (read-out: rhSYK IC50) 6.7 nM; under setting [1], not above 100 nM. Taken in the same sequence, the figures for `Cc1cc(Nc2nccc(C(F)F)n2)cc(-c2cnn(C3CCCC(C)(O)C3(C)O)c2)c1` (centres unmarked) [Example 22.11, 3-[4-(3-{[4-(difluoromethyl)pyrimidin-2-yl]amino}-5-methylphenyl)-1H-pyrazol-1-yl]-1,2-dimethylcyclohexane-1,2-diol] were 2.5 nM and not above 100 nM. In the case of `Cc1cc(Nc2nccc(C(F)F)n2)cc(-c2cnn(C3CCCC(C)(O)C3(C)O)c2)c1` (centres unmarked) [Example 22.12, 3-[4-(3-{[4-(difluoromethyl)pyrimidin-2-yl]amino}-5-methylphenyl)-1H-pyrazol-1-yl]-1,2-dimethylcyclohexane-1,2-diol], the IC50 reads like this: (read-out: rhSYK IC50) 7.4 nM; under setting [1], not above 100 nM. Taken in the same sequence, the figures for `Cc1cc(Nc2nccc(C(F)F)n2)cc(-c2cnn(C3CCC(O)C3(C)O)c2)c1` (centres unmarked) [Example 22.13, 5-[4-(3-{[4-(difluoromethyl)pyrimidin-2-yl]amino}-5-methylphenyl)-1H-pyrazol-1-yl]-1-methylcyclopentane-1,2-diol] were 3.6 nM and not above 100 nM.

`Cc1cc(Nc2nccc(C(F)F)n2)cc(-c2cnn(C3CCC(O)C3(C)O)c2)c1` (centres unmarked) [Example 22.14, 5-[4-(3-{[4-(difluoromethyl)pyrimidin-2-yl]amino}-5-methylphenyl)-1H-pyrazol-1-yl]-1-methylcyclopentane-1,2-diol]: the IC50 is 5.8 nM (read-out: rhSYK IC50) and not above 100 nM under setting [1]. The like results for `Cc1cc(Nc2nccc(C(F)F)n2)cc(-c2cnn(C3CCCCC(O)C3O)c2)c1` (centres unmarked) [Example 22.15, 3-[4-(3-{[4-(difluoromethyl)pyrimidin-2-yl]amino}-5-methylphenyl)-1H-pyrazol-1-yl]cycloheptane-1,2-diol] were, in that order, 2.6 nM and not above 100 nM.

With `Cc1cc(Nc2nccc(C(F)F)n2)cc(-c2cnn(CC3OC(=O)NC3C3CC3)c2)c1` (centres unmarked) [Example 23.17, 4-cyclopropyl-5-{[4-(3-{[4-(difluoromethyl)pyrimidin-2-yl]amino}-5-methylphenyl)-1H-pyrazol-1-yl]methyl}-1,3-oxazolidin-2-one], the IC50 under setting [1] is not above 100 nM. Regarding `Cc1cc(Nc2nccc(C(F)F)n2)cc(-c2cnn(CCNC(=O)C3CC3)c2)c1` [Example 26.1, N-(2-(4-(3-((4-(Difluoromethyl)pyrimidin-2-yl)amino)-5-methylphenyl)-1H-pyrazol-1-yl)ethyl)cyclopropanecarboxamide], the IC50 by setting is: (read-out: rhSYK IC50) 25.2 nM; under setting [1], not above 100 nM.

The values are drawn from patent publication US9242984B2, “Pyrazolyl derivatives as Syk inhibitors” (Merck Sharp & Dohme Corp., priority 2012, dated 2016).
